{"source": "patent US12692283B2", "about": "“Lignan derivative, preparation method therefor and use thereof” (SHANGHAI INSTITUTE OF MATERIA MEDICA, CHINESE ACADEMY OF …, priority 2021, dated 2026)", "type_in_all_cases": "in vivo, mouse", "key": {"[1]": {"test_system": "mice with liver fibrosis induced by carbon tetrachloride", "assay": "Efficacy in mice with carbon tetrachloride-induced liver fibrosis", "details": "intragastric 1 mg/kg/day and 3 mg/kg/day for 3 weeks", "protocol": "Experimental animals: 40 male C57 mice, 8 weeks old.\nModeling and administration: 400 μL of carbon tetrachloride (CCl4) was added to 3.6 mL of olive oil, mixed well, and then injected intraperitoneally at 0.1 mL/20 g, twice a week for six weeks. Six weeks later, 30 mice were divided into 3 groups, with 10 mice in each group. They were given physiological saline by gavage, 1 mg/kg A5 and 3 mg/kg A5. In addition, 10 mice that were not induced were given physiological saline as a control group. After 3 weeks of continuous administration, the mice were sacrificed, and the livers were removed, weighed, fixed and embedded, and the remaining liver tissue was cryopreserved for detection of hydroxyproline content.\nMasson staining of mouse liver tissue: The mouse liver tissue was paraffin-embedded according to conventional methods, and sections were subjected to Masson staining. The specific procedures were as follows. […]\nDetection of hydroxyproline content in mouse liver tissue: A hydroxyproline detection kit (Nanjing Jiancheng Bioengineering Institute) was used. […] Absorbance values of the supernatant at a wavelength of 550 nm were determined using a microplate reader. The hydroxyproline content per 100 mg of liver tissue was then calculated."}, "[2]": {"test_system": "mice with oxazolone-induced enteritis", "assay": "Efficacy in mice with oxazolone-induced inflammatory bowel disease", "details": "intragastric 1 mg/kg/day", "protocol": "Experimental animals: 30 male C57 mice, 8 weeks old.\nModeling and administration: 3% Oxazolone was dissolved in the solvent (acetone:olive oil, 1:4). After the mouse was anesthetized, the hair on the shoulder of the mouse was removed, and then 150 μL of Oxazolone with a mass fraction of 3% was added dropwise. On the 8th day after treatment, 1% Oxazolone was dissolved in a solvent (ethanol:sterilized water, 1:1). After the mice were anesthetized, 150 μL of 1% Oxazolone was administered rectally to create a model. The modeling mice were divided into two groups, with 10 mice in each group. One group was given compound A5 by gavage at 1 mg/kg/day, one group was given physiological saline, and the other group of 10 mice without modeling was used as a control group. Starting from the day of modeling, the weight of the mice was recorded every day. The feces of the mice were collected on the third day after rectal administration to observe the softness of the feces and whether there was bleeding. […]\nMouse enteritis disease activity index score: Mice were scored based on the degree of weight loss of the mouse (0: normal; 1:1-5%; 2:6-10%; 3:11-18%; 4: >18%), the degree of the softness of the feces (0: normal; 2: soft; 4: diarrhea), and the degree of feces bleeding (0: normal; 2: occult blood; 4: bloody stool), then each score was added and divide by three. […]"}, "[3]": {"assay": "Oral pharmacokinetics of phosphate prodrug A5 in ICR mice (plasma and tissues)", "details": "oral 30 mg/kg", "protocol": "Compound A5 (30 mg/kg) was administered orally to overnight fasted ICR mice (male, n=3/time point). The mice were fed 2 hours after administration. Samples were collected before administration and 1 h, 2 h, 4 h, and 8 h after administration. Blood was collected in centrifuge tubes pretreated with heparin sodium and bis(4-nitrophenyl)phosphate (BNPP). After centrifugation at 11,000 rpm for 5 min at 4° C., plasma was obtained and stored at −80° C. Next, 100 […] of plasma sample, precipitated, vortexed for 1 min, and centrifuged (11,000 rpm) for 5 min. A mixture of 20 […] of methanol/acetonitrile (1:1, v/v) was taken to analyze the concentrations of compound A5 and compound A4-1a by LC-MS/MS. Heart (blood emptying), liver, and lung tissues were stored at −80° C. until analysis. After removal of contents, the duodenum and colon were quickly washed with cold saline containing BNPP and stored at −80° C. until analysis. […] 20 μL of the supernatant was redissolved in 20 μL of ACN/H2O (1:1, v/v), and the concentrations of compound A5 and compound A4-1a were analyzed by LC-MS/MS."}}, "data": [{"molecule": "COc1ccc(C[C@H]2COC(=O)[C@]2(C)Cc2ccc(OP(=O)(O)O)c(OC)c2)cc1OC", "note": "[Compound A5, 4-(((3R,4R)-4-(3,4-dimethoxybenzyl)-3-methyl-2-oxotetrahydrofuran-3-yl)methyl)-2-methoxyphenyl dihydrogen phosphate]", "values": [{"measurement": "hydroxyproline (HYP) content in liver tissue", "setting": "[1]", "result": "significantly reduce the increase in hydroxyproline content"}, {"measurement": "positive rate of Masson staining in liver (degree of liver fibrosis)", "setting": "[1]", "result": "significantly reduce the degree of liver fibrosis"}, {"measurement": "colon pathology score", "setting": "[2]", "result": "significantly reduce the colon pathology score"}, {"measurement": "disease activity index of enteritis", "setting": "[2]", "result": "significantly reduce the disease activity index"}, {"measurement": "drug concentration in plasma and various tissues", "setting": "[3]", "result": "good drug concentration in plasma and various tissues"}]}]}
